Data published in paper PMC10671074, “Tumor Regression upon Intratumoral and Subcutaneous Dosing of the STING Agonist ALG-031048 in Mouse Efficacy Models” (International Journal of Molecular Sciences, 2023).
pEC50: −log10 of the molar value. Read-outs that look alike come from different tables or passages of the source.

How the values were obtained:
[1] = biological target: T1, ENPP1 (Homo sapiens, UniProt P22413); assay: ENPP1 stability assay; format: in vitro ADME; settings: pH 9.5; 100 μM STING agonist, 26.5 nM recombinant human ENPP1, 37 °C, up to 2 h; read-out: ENPP1 t½
T1 construct: purchased R&D Systems
T1 sequence (P22413 1-925): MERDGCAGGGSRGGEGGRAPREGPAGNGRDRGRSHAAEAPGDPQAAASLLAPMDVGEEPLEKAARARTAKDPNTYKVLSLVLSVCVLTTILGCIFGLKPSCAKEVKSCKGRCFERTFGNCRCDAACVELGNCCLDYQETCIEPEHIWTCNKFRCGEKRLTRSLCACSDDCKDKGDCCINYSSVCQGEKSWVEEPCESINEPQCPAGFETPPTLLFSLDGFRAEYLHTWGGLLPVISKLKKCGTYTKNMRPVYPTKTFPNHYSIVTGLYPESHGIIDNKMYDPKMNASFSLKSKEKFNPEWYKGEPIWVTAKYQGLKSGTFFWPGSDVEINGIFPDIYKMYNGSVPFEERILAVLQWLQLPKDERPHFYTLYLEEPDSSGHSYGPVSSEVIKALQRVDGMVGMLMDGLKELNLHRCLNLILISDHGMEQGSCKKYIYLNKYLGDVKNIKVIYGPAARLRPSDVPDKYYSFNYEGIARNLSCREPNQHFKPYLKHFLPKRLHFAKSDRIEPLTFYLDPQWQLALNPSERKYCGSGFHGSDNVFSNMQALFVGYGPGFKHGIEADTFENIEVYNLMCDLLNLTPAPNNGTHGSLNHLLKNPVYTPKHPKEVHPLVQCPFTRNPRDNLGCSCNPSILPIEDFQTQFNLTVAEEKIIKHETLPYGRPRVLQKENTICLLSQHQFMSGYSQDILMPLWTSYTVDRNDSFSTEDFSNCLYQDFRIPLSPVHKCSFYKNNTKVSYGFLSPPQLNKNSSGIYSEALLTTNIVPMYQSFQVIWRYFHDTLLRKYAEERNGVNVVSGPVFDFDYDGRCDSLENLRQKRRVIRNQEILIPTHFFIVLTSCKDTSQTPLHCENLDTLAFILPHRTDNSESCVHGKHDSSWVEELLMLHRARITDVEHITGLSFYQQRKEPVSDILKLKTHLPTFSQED

[2] = Plasma stability, mouse; format: in vitro ADME; settings: 37 °C, read-out: Plasma t½, Mouse
Method: The plasma stability assay was carried out on 96-well microtiter plates. The test compounds at 5 µM and the reference compound (propantheline) at 1 µM final concentration were incubated separately at 37 °C with mouse or human plasma for 0, 30, 60, and 240 min. At the end of each incubation time point, 300 μL of the quenching solution (50% acetonitrile, 50% methanol, and 0.05% formic acid) containing the internal standard was added to each well. The incubation plates were sealed, vortexed, and centrifuged at 4 °C for 15 min at 4000 rpm. The supernatant was transferred to fresh plates for LC/MS/MS analysis of the test compounds. The peak area ratios of each test compound over the internal standard were plotted against incubation time, and the t½ was calculated from the curve assuming first-order kinetics.

[3] = Liver microsomal stability, mouse; format: in vitro ADME; settings: pH 7.4, 0.5 mg/mL mouse liver microsomes, 37 °C, read-out: Liver Microsome t½, Mouse
Method: (§1) The liver microsomal stability assay was carried out in 96-well microtiter plates. The test compounds at 5 µM and the reference compound (verapamil) at 1 µM final concentration were incubated separately at 37 °C with 0.5 mg/mL liver microsomes, with or without 1 mM NADPH in 100 mM potassium phosphate buffer, pH 7.4 with 3.3 mM MgCl2. […] At each of the time points (0, 15, 30, and 60 min), the enzymatic reaction was terminated with the addition of 150 μL of quenching solution (100% acetonitrile, 0.1% formic acid, and the internal standard), and subsequently the mixtures were vortexed vigorously for 20 min and centrifuged at 4000 rpm at 10 °C. The supernatants (80 µL) were transferred to a clean 96-well plate and analyzed via LC/MS/MS. The peak area ratios of each test compound over the internal standard were plotted against incubation time, and the t½ was calculated from the curve assuming first-order kinetics.

[4] = Liver microsomal stability, human; format: in vitro ADME; settings: pH 7.4, 0.5 mg/mL human liver microsomes, 37 °C, read-out: Liver Microsome t½, Human
Method: as §1

[5] = test system: primary human immature dendritic cells; assay: Activation of primary human immature dendritic cells (CD83/CD86 flow cytometry); format: cell-based; settings: for pEC50: Homo sapiens, Dendritic cell, iDCs, 72 h after stimulation
Source text: Frozen human PBMCs (100 × 10^6 cells) were obtained from Stem Cell Technologies (Kent, WA, USA). Monocytes were purified from PBMCs using a CD14^+ pan-monocyte-negative isolation kit and an LS column (Miltenyi Biotec, Bergisch Gladbach, Germany). Magnetically labeled non-target cells were depleted by retaining them within a MACS column in the magnetic field of a MACS Separator, while highly purified unlabeled CD1 D16^− cells were collected and used to generate dendritic cells. To obtain immature monocyte-derived dendritic cells (iMDDCs), enriched monocytes were cultured in Mo-DC differentiation medium (Miltenyi Biotec) supplemented with human IL-4 (250 IU/mL, Miltenyi Biotec) and human GM-CSF (800 IU/mL, Miltenyi Biotec) at 37 °C in a T-150 flask in a 5% CO2 humidified incubator for 5 days; fresh media was replenished every 2–3 days.
[…] An aliquot of iMDDCs was also cultured in maturation media for 24–48 h and used as a control containing RPMI 1640, 10% FBS, 2 mM L-glutamine, and human TNF-α (6000 IU/mL, Miltenyi Biotec). The supernatant from the plate was frozen to assess cytokine production, and cells were analyzed via flow cytometry.
Cells were incubated with phosphate-buffered saline (PBS) containing 2% FBS and 2 mM of EDTA (FACS buffer) supplemented with 2 mg/mL of normal human IgG on ice for 15 min to block Fc receptors. The cell suspension was then incubated with a predetermined optimal concentration of the appropriate fluorescent dye-labeled monoclonal antibodies (mAbs) against human cell surface markers on ice for 30 min. The fluorescent dye-labeled mAbs against human cell surface molecules included anti-CD209, anti-CD14, anti-CD11c, anti-CD40, anti-HLA-DR, anti-CD86, and anti-CD83 (BD Biosciences, Franklin Lakes, NJ, USA or BioLegend, San Diego, CA, USA). In addition, a fixable live/dead stain (Thermo Fisher Scientific) at a dilution of 1:1000 was added to exclude dead cells. After several washes with FACS buffer, cells were resuspended in FACS buffer and analyzed on an Attune Nxt flow cytometer (Thermo Fisher Scientific) with FlowJo v10 software (BD Biosciences). An aliquot of the cells to be analyzed served as controls by using “fluorescent minus-one” to establish gates and determine the frequency of positively stained cells. Ultra-comp beads (Thermo Fisher Scientific) were used as single-stained controls to set up compensation on the flow cytometer.

[6] = test system: phosphodiesterase I from Crotalus adamanteus venom (SVPD)

For `CO[C@H]1[C@H]2OP(=O)(O)OC[C@@]34C[C@@H]3[C@@H](n3cnc5c(N)ncnc53)[C@H](O)[C@@H]4O[P@](=O)(S)OC[C@H]1O[C@H]2n1cnc2c(=O)[nH]c(N)nc21` [ALG-031048], the half-life at 100 μM [1] was > 2 h, the half-life at 5 µM [2] was > 1 h and the half-life at 5 µM [3] was > 8 h. For the same molecule, the half-life at 5 µM [4] was > 8 h, the pEC50 ([5]; read-out: EC50 CD83, Immature Dendritic Cells) was 5.28 and the pEC50 ([5]; read-out: EC50 CD86, Immature Dendritic Cells) was 4.75. For the same molecule, the “Surface expression of CD86 and CD83 (in words)” value ([5]; iDCs and, to a lesser degree, monocytes, 24 and 72 h) was “upregulated the surface expression of CD86 and CD83” and the “Stability after incubation with SVPD (in words)” value [6] was “stable”.
